Experimental data: US7112680B2, “Heterocyclic hydrazones for use as anti-cancer agents” (Austria Wirtschaftsservice Gesellschaft MIT Beschrankter …, priority 2000, dated 2006)
Like-named read-outs stand apart in the source and are kept apart here.

Key:
[1] = tested on: KB-HU hydroxyurea-resistant cells; assay: Inhibition of tumor cell growth, SRB-assay, KB-HU; format: cell-based, human
Protocol: (§1) In order to obtain information about the growth-inhibiting action on tumor cells, the inhibition of the growth of the following human tumor cells was determined: Burkitt's lymphoma (CA 46, ATCC No. CRL 1648), CCRF-CEM (acute lymphoblastic leukemia, ATCC No. CCL 119), K562 (chronic myelogenous leukemia, ATTC No. CCL 243), HeLa (epitheloid cervix carcinoma, ATCC No. CCL 2), MEXF 276L (melanoma), HT-29 (colon adenocarcinoma, ATCC No. HTB 38), KB-3-1 (human oral epidermoid carcinoma, CTCC No. CCL 17), KB-HU hydroxyurea-resistant, multidrug-resistant KB-C1 cells (Akiyama et al, Cell. Mol Genet., 11:117–126, 1985). Burkitt's, CCRF-CEM, HeLa and MEXF 276L cells were grown in RPMI 1640, HT-29 cells in McCoy's 5A medium. The KB cell lines were grown in Dulbecco's modified Eagle's medium (4,5 g glucose/l). To the cultures of KB-C1 cells 1 μg of colchicine/ml, and to the hydroxyurea-resistant KB-HU cells 1 mM hydroxyurea was added every other week. The media were supplemented with 10% fetal calf serum (except Burkitt's lymphoma cells with 15%), 2 mM glutamine, 50 units/ml penicillin and 50 μg/ml streptomycin. Inhibition of growth of HeLa, HT-29, KB and MEXF 276L cells was detected by the SRB-assay (Skehan et al, J. Natl Cancer Inst., 82:1107–1112, 1990). 3,000 - 10,000 cells in 200 μl medium were seeded per well into 96-well plates. Dose-response curves for CCRF-CEM and Burkitt's lymphoma cells were effected by an MTT-assay (Mosman, J. Immunol Methods, 65:55–63, 1983) from Boehringer Mannheim, Mannheim, Germany. Approximately 10,000 cells per 100 μl were seeded in 96-well plates. After an initial incubation of four hours, various substance concentrations were added, and the cells were incubated at 37° C. in a water-saturated atmosphere of 95% air and 5% CO2 for 72 hours. The substances were dissolved in dimethylsulfoxide (DMSO). The concentration of DMSO was 0.5%, and this was not toxic to the cells. Subsequently, the samples were fixed, washed, and the absorption was determined by a microplate reader.

[2] = tested on: HT-29 (colon adenocarcinoma); assay: Inhibition of tumor cell growth, SRB-assay, HT-29; format: cell-based, human
Protocol: (§2) The KB cell lines were grown in Dulbecco's modified Eagle's medium (4,5 g glucose/l). To the cultures of KB-C1 cells 1 μg of colchicine/ml, and to the hydroxyurea-resistant KB-HU cells 1 mM hydroxyurea was added every other week. […] 3,000 - 10,000 cells in 200 μl medium were seeded per well into 96-well plates. […] Approximately 10,000 cells per 100 μl were seeded in 96-well plates. […] The substances were dissolved in dimethylsulfoxide (DMSO). […] Subsequently, the samples were fixed, washed, and the absorption was determined by a microplate reader.

[3] = tested on: KB-3-1 (human oral epidermoid carcinoma); assay: Inhibition of tumor cell growth, SRB-assay, KB-3-1; format: cell-based
Protocol: as §1

[4] = tested on: Burkitt's lymphoma (CA 46, ATCC No. CRL 1648); assay: Inhibition of tumor cell growth, MTT-assay, Burkitt's lymphoma; format: cell-based, human
Protocol: as §2

[5] = tested on: multidrug-resistant KB-C1 cells; assay: Inhibition of tumor cell growth, SRB-assay, KB-C1; format: cell-based, human
Protocol: as §1

[6] = tested on: HeLa (epitheloid cervix carcinoma); assay: Inhibition of tumor cell growth, SRB-assay, HeLa; format: cell-based, human
[7] = tested on: human tumor grafts (cell lines of FIG. 1); assay: Colony forming assay (two-layer soft agar); format: cell-based; settings: for IC50 / IC90 / Mean IC70: mean values of all cell lines tested in FIG. 1, continuous exposure 3 to 6 days; for tumor type selectivity: colony forming assay, IC70 pattern, FIG. 1
Protocol: An excellent correlation of drug response in patients and the colony forming assay has been found (Scholz et al, Eur. J. Cancer 25:901–905, 1990). Solid human tumors were grown as grafts in nude mice, removed from the latter, mechanically comminuted and subsequently incubated in an enzyme cocktail consisting of collagenase (1.2–1.8 U/ml), DNAse (375 U/ml) and hyaluronidase (29 U/ml) in RPMI 1640 medium at 37° C. for 30 minutes. The cell mixture was passed through sieves of 200 μm and 50 μm mesh size and washed thereafter twice with PBS (phosphate buffered saline). The percentage of live cells was determined using a Neubauer counting chamber and trypan blue staining.
The colony forming assay was performed according to a two-layer agar technique introduced and modified by Hamburger and Salmon (Hamburger and Salmon, Science, 197:461–463, 1977). The bottom layer consisted of 0.2 ml of Iscoves's Modified Dulbecco's medium with 20% fetal calf serum and 0.75% agar. 8×10^3 to 1.6×10^4 cells were added to the same medium and 0.4% agar and plated in 24-multiwell plates onto the base layer. One day after the plating (with continuous exposure), the substances were added in 0.2 ml medium. Each plate included six controls containing the solvent only, and the treated groups contained 6 concentrations of the substances, each in triplicate. Cultures were incubated at 37° C. and 7% CO2 in a water-saturated atmosphere for 3 to 6 days, depending on the doubling time of the tumor cells. At the time of maximum colony formation with a size of […], counts were performed with an automatic image analysis system. 24 h prior to counting, live colonies were stained with a sterile aqueous solution of 2-(4-iodophenyl)-3-(4-nitrophenyl)-5-phenyltetrazolium chloride (1 mg/ml, 100 μl/well). The results of the tests are given in FIG. 1, and in the following Table 5, respectively. […] Columns pointing towards the right show a slighter than average activity.

[8] = Table 4, 72 hours, read-out: In vitro-activity against human tumor cell lines, KB-HU
[9] = Table 4, 72 hours, read-out: In vitro-activity against human tumor cell lines, HT-29
[10] = Table 4, 72 hours, read-out: In vitro-activity against human tumor cell lines, KB-3-1
[11] = Table 4, 72 hours, read-out: In vitro-activity against human tumor cell lines, Burkitts
[12] = Table 4, 72 hours, read-out: In vitro-activity against human tumor cell lines, KB-C1
[13] = Table 4, 72 hours, read-out: In vitro-activity against human tumor cell lines, HeLa
[14] = Homo sapiens, Table 4, 72 hours, read-out: In vitro-activity against human tumor cell lines, KB-HU
[15] = Homo sapiens, KB 3-1, Table 4, 72 hours, read-out: In vitro-activity against human tumor cell lines, KB-3-1
[16] = Homo sapiens, KBC-1, Table 4, 72 hours, read-out: In vitro-activity against human tumor cell lines, KB-C1
[17] = Table 1, 72 hours, read-out: IC50 KB-HU
[18] = Table 1, 72 hours, read-out: IC50 HT-29 (converted)
[19] = Table 1, 72 hours, read-out: IC50 KB-3-1
[20] = Table 1, 72 hours, read-out: IC50 Burkitts
[21] = Table 1, 72 hours, read-out: IC50 KB-Cl
[22] = Table 1, 72 hours, read-out: IC50 HeLa (converted)

Row | Compound | IC50 [1, 8] | IC50 [3, 10] | IC50 [5, 12] | IC50 [2, 18] | IC50 [3, 19] | IC50 [5, 21] | IC50 [6, 22] | other results
1 | CC(=NNc1nc2ccccc2n1C)c1cccc(Br)n1 [Id-6] | 3890 nM | 1690 nM | 2130 nM |  |  |  |  | IC50 [2, 9]: 3150 nM; IC50 [4, 11]: 2490 nM; IC50 [6, 13]: 3250 nM
2 | CC(=NNc1nc2ccccc2n1C)c1ccc(C)cn1 [Id-9, 1-(5-Methyl-2-pyridyl)-1-ethanone-1-(1-methyl-1H-benzo[d]imidazol-2-yl)-hydrazone] |  |  |  |  |  |  |  | IC50 [1, 14]: 120 nM; IC50 [3, 15]: 40 nM; IC50 [5, 16]: 110 nM; IC50 ([7]; Homo sapiens): 199 nM; IC90 ([7]; Homo sapiens): 3790 nM; Mean IC70 [7]: 560 nM
3 | C(=NNc1nc2ccccc2o1)c1ccccn1 [Ia-3] |  |  |  | 1440 nM | 480 nM | 770 nM | 25 nM | IC50 [1, 17]: 610 nM; IC50 [4, 20]: 5 nM
4 | CC(=NNc1nc2ccccc2n1C)c1ncccc1C [Id-7] | 460 nM | 260 nM | 160 nM |  |  |  |  | 
5 | CCCC(=NNc1nc2ccccc2[nH]1)c1ccccn1 [Ia-11] |  |  |  | 200 nM | 500 nM | 830 nM | 57 nM | IC50 [1, 17]: 130 nM
6 | CC(=NNc1nc2ccccc2n1C)c1ncccc1-c1ccccc1 [Id-14] | 700 nM | 550 nM | 1420 nM |  |  |  |  | IC50 [2, 9]: 70 nM; IC50 [4, 11]: 10 nM; IC50 [6, 13]: 70 nM
7 | CCC(=NNc1nc2ccccc2o1)c1ccccn1 [Ia-9] |  |  |  |  |  |  |  | tumor type selectivity [7]: selectivity for colon, breast, ovarian, and uterus tumors
8 | Cn1c(NN=Cc2ccccn2)nc2ccccc21 [Ia-2] |  |  |  | 270 nM |  |  | 80 nM | IC50 [4, 20]: 30 nM
9 | CC(C)C(=NNc1nc2ccccc2[nH]1)c1ccccn1 [Ia-15] |  |  |  | 520 nM | 700 nM | 1980 nM | 21 nM | IC50 [1, 17]: 1 nM
10 | CC(=NNc1nc2ccccc2o1)c1ccccn1 [Ia-6] |  |  |  | 130 nM | 210 nM | 610 nM | 23 nM | IC50 [1, 17]: 320 nM; IC50 [4, 20]: 9 nM
11 | COc1cccnc1C(C)=NNc1nc2ccccc2n1C [Id-1, 1-(3-Methoxy-2-pyridyl)-1-ethanone-1-(1-methyl-1H-benzo[d]imidazol-2-yl)-hydrazone] |  |  |  |  |  |  |  | IC50 [1, 14]: 10 nM; IC50 ([2]; Homo sapiens, HT-29, Table 4, 72 hours, read-out: In vitro-activity against human tumor cell lines, HT-29): 230 nM; IC50 [3, 15]: 20 nM; IC50 ([4]; Homo sapiens, CA46, Table 4, 72 hours, read-out: In vitro-activity against human tumor cell lines, Burkitts): 1 nM; IC50 [5, 16]: 870 nM; IC50 ([6]; Homo sapiens, HeLa, Table 4, 72 hours, read-out: In vitro-activity against human tumor cell lines, HeLa): 50 nM
12 | CC(=NNc1nc2ccccc2n1C)c1ncccc1Cl [Id-3] | 180 nM | 310 nM | 300 nM |  |  |  |  | IC50 [2, 9]: 540 nM; IC50 [4, 11]: 4 nM; IC50 [6, 13]: 250 nM
13 | CCC(=NNc1nc2ccccc2[nH]1)c1ccccn1 [Ia-7] |  |  |  | 240 nM | 4010 nM | 740 nM | 53 nM | 
14 | c1ccc(C(=NNc2nc3ccccc3[nH]2)c2ccccn2)nc1 [Ia-36] |  |  |  | 1360 nM |  | 2110 nM | 1430 nM | 
15 | c1ccc(C(=NNc2nc3ccccc3[nH]2)C2CC2)nc1 [Ia-23] |  |  |  | 510 nM |  | 320 nM | 70 nM | 
16 | COc1ccnc(C(C)=NNc2nc3ccccc3n2C)c1 [Id-2] | 40 nM | 50 nM | 160 nM |  |  |  |  | IC50 [2, 9]: 120 nM; IC50 [6, 13]: 50 nM; tumor type selectivity [7]: selectivity for colon, breast, ovarian, and uterus tumors; IC50 [7]: 80 nM; IC90 [7]: 2850 nM; Mean IC70 [7]: 261 nM
17 | CC(=NNc1nc2ccccc2n1C)c1ccccn1 [Ia-5] |  |  |  | 50 nM | 44 nM | 48 nM | 5.4 nM | IC50 [1, 17]: 52 nM; IC50 [4, 20]: 4.3 nM
18 | CC(=NNc1nc2ccccc2n1C)c1cc(C)ccn1 [Id-8] | 20 nM | 30 nM | 100 nM |  |  |  |  | tumor type selectivity [7]: selectivity for colon, breast, ovarian, and uterus tumors; IC50 [7]: 102 nM; IC90 [7]: 2380 nM; Mean IC70 [7]: 317 nM
19 | C(=NNc1nc2ccccc2[nH]1)c1ccccn1 [Ia-1] |  |  |  | 3690 nM | 1360 nM | 2940 nM | 1020 nM | IC50 [4, 20]: 660 nM
20 | CC(C)(C)C(=NNc1nc2ccccc2[nH]1)c1ccccn1 [Ia-19] |  |  |  | > 100000 nM |  | 92000 nM | > 100000 nM | 
